Entries after “also recorded” stand apart in the source; their conditions may differ. Where a SMILES comes first, the peptide text is derived from it.
Assays:
Assay type in all cases: cell-based
[1] = target: sodium channel in CNaIIA cells (Rattus norvegicus, UniProt P04775); test: Blocking of the sodium channel in CNaIIA cells by IFM-amide during repetitive stimulation; details: for dependence of inhibition of sodium channels / sodium channel blocking: repetitive stimulation; for sodium channel blocking: FIGS. 7 and 8
Description: It was reasoned that a tripeptide IFM-amide could be an effective inactivation gate peptide since it contains both the critical IFM residues and the charge of the unblocked α-amino group in the isoleucine residue. […] During repetitive stimulation, increased inhibition is observed with each succeeding pulse (pulse #) until a steady state is reached (FIG. 7). The degree of inhibition at steady state is dependent on the frequency of the stimulation pulses (% Ipulse #1; FIG. 7) and on the voltage of the stimulating pulses (FIG. 8). […] This implies that IFM amide has greater intrinsic affinity for the receptor site that blocks the sodium channel.

[2] = target: wild-type Type IIA sodium channels (Rattus norvegicus, UniProt P04775); test: Voltage- and frequency-dependent block of sodium channels, sodium currents recorded in CNaIIA-1 cells; details: for block of rapidly cycling type IIA sodium channels over the entire voltage range: 10 Hz voltage pulses, -50 to +100 mV
Method: (§1) Experiments were performed on wild-type Type IIA sodium channels stably transfected into Chinese hamster ovary (CHO) cells (CNalIA-1; as described in citation 23, which is incorporated herein by reference) and mutant (F1489Q) sodium channels transiently transfected into human kidney carcinoma cells (as described in citations 24 and 25, which are incorporated herein by reference).
The effects of the KIFMK gate peptide on sodium channels was tested by backfilling an electrode with a recording solution containing 1 mM peptide after loading the tip of the electrode with a buffer of peptide-free solution (i.e., to enhance seal formation when the electrode was inserted into a cell). After forming a high-resistance seal and breaking through the cell membrane, the peptide rapidly diffused into the cell and caused the appearance of tail currents (see below) within 10 minutes. When stabilized, sodium currents were recorded in the cells before and after a series of 10 Hz voltage pulses that varied over the range -50 to +100 mV. Parallel control experiments were conducted in which electrodes were not backfilled with peptides. The magnitude of the sodium currents in the experimental and control preparations were compared.
As a control, a KIQMK peptide was prepared to mimic the sequence present in mutant F 1489Q sodium channels.

[3] = system: mutant F1489Q sodium channels; test: Restoration of inactivation in mutant sodium channels transiently expressed in TSQ-201 cells; details: for inactivation of mutant (F1489Q) sodium channels: peptide perfused at 1 mM into TSQ-201 cells, FIG. 4
Method: as §1
Mutant F1489Q sodium channels were transiently expressed in TSQ-201 cells (24). The mutant channels in the cells activated normally but inactivated very slowly. […] The time course of inactivation for the mutant channels was dramatically slowed over the entire voltage range. Having established the properties of the test cells and mutant channels, the peptides KIFMK and KIQMK were next tested. KIFMK or KIQMK were perfused (at a concentration of 1 mM) into the TSQ-201 cells expressing the mutant (F1489Q) sodium channels.

[4] = target: Wild-type IIA sodium channels (Rattus norvegicus, UniProt P04775); test: Competition with the normal inactivation process: tail currents by whole-cell voltage clamp; details: cell perfused with peptide; for macroscopic sodium current elicited by depolarizing test pulse to 0 mV: versus controls; for tail currents elicited by repolarization pulse: from 0 to -80 mV, FIG. 5
Description: Considering binding of KIFMK inactivation gate peptide to putative inactivation gate receptor site(s) in the intracellular mouth of the sodium channel, peptide binding might prevent channel closure by the natural inactivation gate due to steric hindrance. In this model, closure of the inactivation gate would be prevented by the drug and after depolarization-induced opening, repolarization should cause the peptide to dissociate from the channel, leaving the channel open for a "brief period" of time before closure and inactivation can block the channel. The existence of the "brief period" of channel opening was captured and recorded as a rising component of tail current in the following experiments.
Wild-type IIA sodium channels were recorded using a whole-cell voltage clamp method. Under the recording conditions used, the sodium channels have tail currents upon rapid repolarization that declined exponentially without a rising phase because the channel rapidly closes upon repolarization (FIG. 5A). The magnitude of the tail currents decreases as the duration of the test pulse is increased. Repetitive pulsing created a family of tail current recordings that decreased exponentially (from a starting level near that of the sodium current), without any rising component in the recorded curves (FIG. 5A). […] The amplitude of the rising component of the latter tail currents decreased with increasing pulse duration as the macroscopic sodium current decreased.

[5] = target: scorpion-toxin modified wild-type sodium channels (Rattus norvegicus, UniProt P04775); test: Inactivation in scorpion-toxin modified wild-type sodium channels in CNaIIA-1 cells; details: 100 nM LqTx in bath; test voltage to 0 mV; FIG. 6
Description: Externally applied alpha-scorpion toxins slow sodium channel inactivation without affecting activation (reviewed in 26). Sodium currents in stably transfected CNaIIA-1 cells respond to a depolarizing test voltage to 0 mV with rapid activation and inactivation of the sodium channel. […] KIQMK, on the other hand, had no effect (FIG. 6).

Na+ channels = test: Structural specificity: ability of peptides to block sodium channels and restore fast inactivation; details: qualitative summary; methods similar to Examples 1-4
Description: The results of these experiments are summarized qualitatively below.

Chain of wild-type Type IIA sodium channels (P04775 whole entry): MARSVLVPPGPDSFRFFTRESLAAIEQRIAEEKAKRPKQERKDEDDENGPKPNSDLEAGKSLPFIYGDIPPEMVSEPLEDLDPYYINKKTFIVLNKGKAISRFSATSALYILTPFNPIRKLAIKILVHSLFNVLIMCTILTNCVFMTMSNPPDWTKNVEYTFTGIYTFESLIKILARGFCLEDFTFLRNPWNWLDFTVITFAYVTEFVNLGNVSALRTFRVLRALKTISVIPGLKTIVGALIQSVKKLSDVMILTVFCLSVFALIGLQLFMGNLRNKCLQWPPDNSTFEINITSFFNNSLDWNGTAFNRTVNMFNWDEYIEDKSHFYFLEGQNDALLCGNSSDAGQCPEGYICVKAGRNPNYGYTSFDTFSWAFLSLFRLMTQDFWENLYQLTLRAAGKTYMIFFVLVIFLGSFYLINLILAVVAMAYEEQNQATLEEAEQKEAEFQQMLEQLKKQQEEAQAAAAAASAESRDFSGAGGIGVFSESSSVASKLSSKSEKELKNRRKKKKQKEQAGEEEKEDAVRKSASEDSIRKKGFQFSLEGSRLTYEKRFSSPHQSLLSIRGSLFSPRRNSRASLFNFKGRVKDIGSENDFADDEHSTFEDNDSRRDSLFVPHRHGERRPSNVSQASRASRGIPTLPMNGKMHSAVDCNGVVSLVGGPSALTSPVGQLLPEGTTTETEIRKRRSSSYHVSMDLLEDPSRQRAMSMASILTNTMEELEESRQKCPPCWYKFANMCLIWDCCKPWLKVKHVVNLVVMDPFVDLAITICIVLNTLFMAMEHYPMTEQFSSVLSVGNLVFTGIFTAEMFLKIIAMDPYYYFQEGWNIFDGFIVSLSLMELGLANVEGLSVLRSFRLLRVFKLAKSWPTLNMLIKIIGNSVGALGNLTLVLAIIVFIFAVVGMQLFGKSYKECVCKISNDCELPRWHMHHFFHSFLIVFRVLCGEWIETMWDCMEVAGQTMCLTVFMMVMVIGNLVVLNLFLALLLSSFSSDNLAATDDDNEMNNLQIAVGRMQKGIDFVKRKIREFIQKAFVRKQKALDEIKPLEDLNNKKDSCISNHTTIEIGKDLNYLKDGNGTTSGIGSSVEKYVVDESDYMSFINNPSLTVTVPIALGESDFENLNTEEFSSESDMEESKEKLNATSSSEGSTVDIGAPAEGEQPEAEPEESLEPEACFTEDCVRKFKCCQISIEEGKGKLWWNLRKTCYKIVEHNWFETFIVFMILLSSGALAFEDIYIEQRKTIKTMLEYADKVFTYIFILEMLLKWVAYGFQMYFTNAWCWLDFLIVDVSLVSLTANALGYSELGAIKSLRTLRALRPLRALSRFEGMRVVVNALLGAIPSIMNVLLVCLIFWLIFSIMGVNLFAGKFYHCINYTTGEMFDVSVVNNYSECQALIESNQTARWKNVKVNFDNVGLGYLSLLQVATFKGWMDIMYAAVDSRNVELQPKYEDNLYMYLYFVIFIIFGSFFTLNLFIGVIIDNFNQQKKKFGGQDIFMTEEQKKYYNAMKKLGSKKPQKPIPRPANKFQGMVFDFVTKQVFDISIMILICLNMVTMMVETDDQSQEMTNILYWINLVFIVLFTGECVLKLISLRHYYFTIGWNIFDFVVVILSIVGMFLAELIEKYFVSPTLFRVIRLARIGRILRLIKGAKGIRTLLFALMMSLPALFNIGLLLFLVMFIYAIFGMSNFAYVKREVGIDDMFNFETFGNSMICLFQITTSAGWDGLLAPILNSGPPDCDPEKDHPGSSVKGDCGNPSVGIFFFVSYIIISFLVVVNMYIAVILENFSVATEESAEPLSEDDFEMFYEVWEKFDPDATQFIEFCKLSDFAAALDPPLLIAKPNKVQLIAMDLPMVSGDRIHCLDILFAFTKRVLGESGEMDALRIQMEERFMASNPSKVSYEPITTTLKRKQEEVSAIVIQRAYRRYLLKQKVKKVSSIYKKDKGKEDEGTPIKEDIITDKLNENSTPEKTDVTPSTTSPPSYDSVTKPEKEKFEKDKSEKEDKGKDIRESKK
Chain of scorpion-toxin modified wild-type sodium channels (P04775 whole entry): as above
Chain of sodium channel in CNaIIA cells (P04775 whole entry): as above
Chain of Wild-type IIA sodium channels (P04775 whole entry, the tested form may be a part): as the sequence (P04775 whole entry) above

CC[C@H](C)[C@H](N)C(=O)N[C@@H](Cc1ccccc1)C(=O)N[C@@H](CCSC)C(N)=O [IFM-amide] (H-Ile-Phe-Met-NH2)
membrane potentials at which block is effective, compared with KIFMK ([1]; compare FIGS. 3 and 8): effective sodium channel blocker at much more negative membrane potentials than KIFMK | blocking activity compared with IFM free acid or acetyl IFM free acid ([1]; experiments like those in Example 6): increased blocking activity | dependence of inhibition of sodium channels [1]: voltage-sensitive blocking | sodium channel blocking [1]: blocking of the sodium channel | sodium channel blocking ([1]; listed as IFM amide): very effective sodium channel blocker | dependence of inhibition of sodium channels ([1]; listed as IFM amide): voltage- and frequency-dependent

CC[C@H](C)[C@H](NC(=O)[C@H](CCCCN)NC(C)=O)C(=O)N[C@@H](Cc1ccccc1)C(=O)N[C@@H](CCSC)C(=O)N[C@@H](CCCCN)C(N)=O [KIFMK, acetyl-KIFMK-amide]
time to appearance of tail currents after peptide diffusion into the cell ([2]; 1 mM peptide in backfilled electrode): ≤ 10 min | reduction (inhibition) of sodium currents in response to frequent depolarizing pulses ([2]; 1 mM peptide in electrode, 10 Hz pulses, after 15 min perfusion/cycling): substantial level of inhibition; also recorded: substantially reduced | channel block by 10 Hz pulses given at 100 mV ([2]; 1 mM peptide, FIG. 3): completely blocked | reduction in sodium current when cell membranes not depolarized frequently ([2]; 1 mM peptide, closed channels): Little reduction | blockage of currents generated in response to 10 Hz pulses at positive voltages ([2]; 1 mM peptide, greater than 0 mV): substantial | block of rapidly cycling type IIA sodium channels over the entire voltage range ([2]; FIG. 3): inhibited | inhibition of sodium currents within 4 minutes of cycling ([2]; FIG. 2A, relative to control recording without peptide): insignificant level of inhibition | character of the inhibitory effect on the sodium channel ([2]; combined results of Example 1): strong and voltage- and frequency-dependent | time to steady-state level of inhibition ([3]; 1 mM peptide): less than 2 ms | course and extent of induced inactivation ([3]; 1 mM, compared with wild-type channel function): rapid but incomplete | inactivation of mutant (F1489Q) sodium channels [3]: restore inactivation; also recorded: successfully inactivated | macroscopic sodium current elicited by depolarizing test pulse to 0 mV [4]: decayed with a time course faster than that of controls | tail currents elicited by repolarization pulse [4]: rose to a peak and then decayed much more slowly than in controls; also recorded: significant tail currents | initial rate of sodium channel inactivation in presence of α-scorpion toxin [5]: significantly accelerated; also recorded: partially restore inactivation activity

Ac-DIFMT-NH2 [acetyl-DIFMT-amide]
Inhibition of Na+ channels (Na+ channels): ineffective

Ac-KIQMK-NH2 [KIQMK, acetyl-KIQMK-amide, reference compound]
block of rapidly cycling type IIA sodium channels over the entire voltage range ([2]; FIG. 3): inactive; also recorded: did not block | inactivation of mutant (F1489Q) sodium channels [3]: without effect; also recorded: did not | macroscopic sodium current elicited by depolarizing test pulse to 0 mV [4]: no significant effect | tail currents elicited by repolarization pulse [4]: no significant effect; also recorded: no significant gating currents | initial rate of sodium channel inactivation in presence of α-scorpion toxin [5]: no effect

From US5437982A, “Methods of identifying specific inactivation gate inhibitors of the sodium channel” (University of Washington, priority 1993, dated 1995)
